Source: patent US12129258B2, “Diaryl macrocyclic compound and pharmaceutical composition, and use thereof” (PrimeGene (Beijing) Co., Ltd., priority 2018, dated 2024)
pIC50: −log10 of the molar value. Like-named read-outs stand apart in the source and are kept apart here.

Assays:
TRKA [1] = molecular target: T1, TRKA (Homo sapiens (Human), UniProt P04629); assay: Mobility shift assay, TRKA kinase; assay type: biochemical; details: ATP 47.8 μM
Source text: (§1) The operation is described as follows:
(§2) Conversion %_Sample: conversion rate of sample;

ROS1 = ROS1 (Homo sapiens (Human), UniProt P08922); assay: Mobility shift assay, ROS1 kinase; assay type: biochemical; details: ATP 26.7 μM
ROS1, sequence (P08922 28-2347): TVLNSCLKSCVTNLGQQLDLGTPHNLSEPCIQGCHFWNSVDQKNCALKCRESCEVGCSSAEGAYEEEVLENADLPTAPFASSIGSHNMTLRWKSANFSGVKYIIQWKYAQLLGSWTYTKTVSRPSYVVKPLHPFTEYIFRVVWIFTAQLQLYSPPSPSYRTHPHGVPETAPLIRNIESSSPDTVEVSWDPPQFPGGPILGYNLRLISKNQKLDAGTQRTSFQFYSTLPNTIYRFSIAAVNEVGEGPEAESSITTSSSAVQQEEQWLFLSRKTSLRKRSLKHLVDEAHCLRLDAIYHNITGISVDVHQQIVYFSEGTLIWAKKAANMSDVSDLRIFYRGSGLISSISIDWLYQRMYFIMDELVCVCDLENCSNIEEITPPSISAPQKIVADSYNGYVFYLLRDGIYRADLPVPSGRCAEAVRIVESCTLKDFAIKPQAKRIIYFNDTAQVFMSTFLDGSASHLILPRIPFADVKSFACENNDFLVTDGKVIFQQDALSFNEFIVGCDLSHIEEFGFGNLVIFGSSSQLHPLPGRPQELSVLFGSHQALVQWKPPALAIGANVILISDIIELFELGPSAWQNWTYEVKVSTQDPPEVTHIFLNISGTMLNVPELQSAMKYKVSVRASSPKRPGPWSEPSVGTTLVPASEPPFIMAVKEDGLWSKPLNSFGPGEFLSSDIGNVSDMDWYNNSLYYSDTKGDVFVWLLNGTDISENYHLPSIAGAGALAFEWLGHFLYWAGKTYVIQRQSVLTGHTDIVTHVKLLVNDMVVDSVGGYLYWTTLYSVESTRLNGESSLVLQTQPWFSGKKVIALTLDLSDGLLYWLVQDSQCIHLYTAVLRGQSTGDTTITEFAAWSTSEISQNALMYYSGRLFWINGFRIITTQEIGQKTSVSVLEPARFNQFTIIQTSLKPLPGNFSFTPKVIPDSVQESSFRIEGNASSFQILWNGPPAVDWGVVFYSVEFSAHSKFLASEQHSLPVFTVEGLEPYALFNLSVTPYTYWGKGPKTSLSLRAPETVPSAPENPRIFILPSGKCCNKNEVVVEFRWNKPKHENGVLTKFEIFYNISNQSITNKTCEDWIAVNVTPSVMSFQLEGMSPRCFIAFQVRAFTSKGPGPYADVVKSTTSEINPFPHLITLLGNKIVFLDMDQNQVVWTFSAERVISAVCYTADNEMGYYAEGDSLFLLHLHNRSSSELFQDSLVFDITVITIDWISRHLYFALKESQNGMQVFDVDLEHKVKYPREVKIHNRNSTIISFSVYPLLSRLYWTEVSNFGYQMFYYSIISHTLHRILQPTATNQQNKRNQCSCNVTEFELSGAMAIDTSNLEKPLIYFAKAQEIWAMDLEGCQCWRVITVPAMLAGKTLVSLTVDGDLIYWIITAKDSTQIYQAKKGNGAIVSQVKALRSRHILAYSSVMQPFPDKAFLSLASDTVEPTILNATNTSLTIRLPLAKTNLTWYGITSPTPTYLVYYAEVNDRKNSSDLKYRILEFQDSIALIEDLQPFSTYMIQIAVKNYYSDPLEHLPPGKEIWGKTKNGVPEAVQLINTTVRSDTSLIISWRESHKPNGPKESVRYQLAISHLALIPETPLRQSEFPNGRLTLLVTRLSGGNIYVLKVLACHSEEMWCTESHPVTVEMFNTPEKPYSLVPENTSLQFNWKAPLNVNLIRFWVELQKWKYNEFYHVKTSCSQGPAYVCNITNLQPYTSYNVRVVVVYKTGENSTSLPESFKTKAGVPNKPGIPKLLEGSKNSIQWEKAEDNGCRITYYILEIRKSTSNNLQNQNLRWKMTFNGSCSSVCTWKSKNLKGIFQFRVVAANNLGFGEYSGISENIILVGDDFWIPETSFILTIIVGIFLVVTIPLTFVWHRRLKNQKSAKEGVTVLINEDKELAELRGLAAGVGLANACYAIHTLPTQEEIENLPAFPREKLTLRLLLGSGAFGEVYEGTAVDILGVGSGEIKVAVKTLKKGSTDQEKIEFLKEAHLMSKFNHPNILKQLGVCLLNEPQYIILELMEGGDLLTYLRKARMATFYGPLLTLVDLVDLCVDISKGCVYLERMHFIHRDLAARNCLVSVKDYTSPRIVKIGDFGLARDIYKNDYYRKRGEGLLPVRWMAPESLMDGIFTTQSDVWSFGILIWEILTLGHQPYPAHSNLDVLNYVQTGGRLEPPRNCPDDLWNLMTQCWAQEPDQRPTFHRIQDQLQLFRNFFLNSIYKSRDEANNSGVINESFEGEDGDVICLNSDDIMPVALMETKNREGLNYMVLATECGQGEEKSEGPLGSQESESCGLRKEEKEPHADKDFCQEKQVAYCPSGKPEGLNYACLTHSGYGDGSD
Source text: as §1, §2

TRKB = TRKB (Homo sapiens (Human), UniProt Q16620); assay: Mobility shift assay, TRKB kinase; details: read-out: TRKB IC50, ATP 71.2 μM
TRKB, sequence (Q16620 32-822): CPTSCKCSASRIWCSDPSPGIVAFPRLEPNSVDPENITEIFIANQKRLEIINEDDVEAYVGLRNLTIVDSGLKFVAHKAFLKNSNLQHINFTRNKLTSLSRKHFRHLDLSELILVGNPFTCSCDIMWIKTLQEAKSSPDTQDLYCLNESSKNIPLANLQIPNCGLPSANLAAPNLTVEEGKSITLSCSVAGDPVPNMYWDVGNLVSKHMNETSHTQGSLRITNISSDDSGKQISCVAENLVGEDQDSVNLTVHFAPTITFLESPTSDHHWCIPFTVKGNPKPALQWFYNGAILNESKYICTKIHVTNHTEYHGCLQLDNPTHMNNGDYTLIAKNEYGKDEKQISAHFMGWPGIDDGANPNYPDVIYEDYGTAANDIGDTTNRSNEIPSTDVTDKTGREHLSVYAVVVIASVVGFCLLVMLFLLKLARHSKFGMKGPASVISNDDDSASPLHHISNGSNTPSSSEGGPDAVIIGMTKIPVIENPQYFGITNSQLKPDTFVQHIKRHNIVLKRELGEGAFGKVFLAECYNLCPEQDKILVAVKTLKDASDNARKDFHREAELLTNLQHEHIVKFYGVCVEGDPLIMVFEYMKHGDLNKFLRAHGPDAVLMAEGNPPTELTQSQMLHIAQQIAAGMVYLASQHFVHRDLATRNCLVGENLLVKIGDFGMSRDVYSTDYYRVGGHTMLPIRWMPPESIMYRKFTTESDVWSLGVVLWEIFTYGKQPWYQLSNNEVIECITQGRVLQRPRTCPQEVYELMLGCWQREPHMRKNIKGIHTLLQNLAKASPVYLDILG
Method: (§8) The inhibitory activity of compounds on TRKA, TRKB, TRKC and ROS1 kinase was analyzed with Mobility shift assay. The screening platform is MSA based microfluidic chip technology, which applies the basic concept of capillary electrophoresis to microfluidic environment. The substrate used in the experiment is a poly-peptide labeled with fluorescent. Under the catalysis of enzyme in the reaction system, the substrate is transformed into a product, with the charge changed accordingly. MSA technology could detect the substrate and the product with different charge separately.
(§9) The compound powder was dissolved in 100% DMSO (Sigma, Cat. D8418-1l) to prepare a 10 mM storage solution. […] The reaction was carried out at room temperature for 30 min/40 min/20 min/20 min respectively. After the reaction was terminated, the conversion rate was read by Caliper EZ Reader II.
(§10) Conversion %_Min: mean value of negative control, representing the conversion rate without enzyme activity;
(§11) Conversion %_Max: mean value of positive control, which represents the conversion rate reading without compound inhibition.
(§12) Taking the log value of concentration as X axis and the percentage inhibition rate as Y axis, the dose response curve was fitted by the analysis software GraphPad Prism 5, thus the IC50 value of each compound on enzyme activity inhibition was obtained.

TRKC = TRKC (Homo sapiens (Human), UniProt Q16288); assay: Mobility shift assay, TRKC kinase; details: read-out: TRKC IC50, ATP 44.4 μM
TRKC, sequence (Q16288 other isoform, or with tags, fused parts or gaps isoform Q16288-3): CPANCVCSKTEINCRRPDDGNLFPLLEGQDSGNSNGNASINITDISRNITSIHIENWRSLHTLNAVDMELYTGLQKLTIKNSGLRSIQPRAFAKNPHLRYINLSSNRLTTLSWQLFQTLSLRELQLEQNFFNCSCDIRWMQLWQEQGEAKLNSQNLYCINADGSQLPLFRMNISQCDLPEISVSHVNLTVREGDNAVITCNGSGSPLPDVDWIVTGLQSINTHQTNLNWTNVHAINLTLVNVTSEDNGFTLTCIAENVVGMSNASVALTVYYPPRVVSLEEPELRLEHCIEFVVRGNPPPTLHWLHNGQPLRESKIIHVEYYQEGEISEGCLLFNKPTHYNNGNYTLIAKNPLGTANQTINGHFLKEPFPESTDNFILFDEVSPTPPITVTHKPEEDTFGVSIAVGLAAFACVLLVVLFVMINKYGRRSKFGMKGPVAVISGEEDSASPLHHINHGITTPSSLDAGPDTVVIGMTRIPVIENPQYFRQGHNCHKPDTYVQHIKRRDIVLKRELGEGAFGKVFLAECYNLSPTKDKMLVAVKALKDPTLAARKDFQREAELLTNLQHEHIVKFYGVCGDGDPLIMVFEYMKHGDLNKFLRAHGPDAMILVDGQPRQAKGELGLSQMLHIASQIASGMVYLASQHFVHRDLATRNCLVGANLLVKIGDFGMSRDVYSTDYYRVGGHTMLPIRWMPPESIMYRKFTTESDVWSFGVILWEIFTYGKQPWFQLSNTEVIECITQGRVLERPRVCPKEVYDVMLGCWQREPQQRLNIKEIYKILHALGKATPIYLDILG
Method: as §8, §9, §10, §11, §12

TRKA [2] = molecular target: T1, TRKA; assay: HTRF kinase activity assay, TRKA; assay type: biochemical; details: 90 μM ATP
Method: The IC50 values of the compounds were calculated using XLFIT5 (IDBS) software.

Ba/F3 ETV6-NTRK2-WT = assay: Cell proliferation inhibition (CellTiter-Glo), Ba/F3 ETV6-NTRK2-WT; assay type: cell-based; details: Mus musculus, BaF3, 72 h, read-out: IC50 proliferation Ba/F3 ETV6-NTRK2-WT
Method: (§3) 4. Inhibitory Effect of Compounds on the Proliferation of TRK Fusion and Mutant Stable Cell Lines (IC50)
(§4) Six cell lines including Ba/F3 LMNA-NTRK1-WT, Ba/F3 LMNA-NTRK1-G595R, Ba/F3 ETV6-NTRK2-WT, Ba/F3 ETV6-NTRK2-G639R, Ba/F3 ETV6-NTRK2-G639R and Ba/F3 ETV6-NTRK3-G623R were used in this experiment. For the six cell lines, the maximum test concentration of the compound was 1 μM, 1 μM, 10 μM, […], 1 μM and 10 μM, were 3.16-fold gradient diluted to obtain 9 samples.
(§5) The operation is described briefly as follows:
(§6) The cells in logarithmic growth phase were harvested to ensure that the cell viability was above 90%. 3000 cell/well were seeded in 96-well plate (Corning, Cat #3603). The cells were incubated overnight with 5% CO2, 95% humidity at 37° C. Then each well containing the cells of the 96-well plate was added the compound solutions, 3 wells for each compound solution, and continued to incubate for another 72 hrs. Then CellTiter-Glo® kit (Promega, Cat #G7572) was used to do the detection. First, the CTG reagent was melted and the cell plate was balanced to room temperature. The same volume of CTG solution was added into each well and vibrated on the shaker for 5 minutes to lyse the cells. The cell plate was kept at room temperature for 20 minutes to stabilize the luminescent signal. The luminescent value was collected by SpectraMax microplate detector (MD, 2104-0010A). […] Cell survival rate (%)=(1umdrug−1ummedium)/(1umcell−lummedium)×100%

Ba/F3 ETV6-NTRK2-G639R = assay: Cell proliferation inhibition (CellTiter-Glo), Ba/F3 ETV6-NTRK2-G639R; assay type: cell-based; details: Mus musculus, BaF3, 72 h, read-out: IC50 proliferation Ba/F3 ETV6-NTRK2-G639R
Method: as §3, §4, §5, §6

Ba/F3 ETV6-NTRK3-WT = assay: Cell proliferation inhibition (CellTiter-Glo), Ba/F3 ETV6-NTRK3-WT; assay type: cell-based; details: Mus musculus, BaF3, 72 h, read-out: IC50 proliferation Ba/F3 ETV6-NTRK3-WT
Ba/F3 LMNA-NTRK3-G623R = assay: Cell proliferation inhibition (CellTiter-Glo), Ba/F3 LMNA-NTRK3-G623R; assay type: cell-based; details: Mus musculus, BaF3, 72 h, read-out: IC50 proliferation Ba/F3 LMNA-NTRK3-G623R
[3] = Pharmacokinetic analysis in rats; assay type: in vivo, Male SD rats; details: male, SD, plasma; rat, PO, 5 mg/kg
Method: 6. Pharmacokinetic Analysis
Male SD rats were grouped, each group having 3 rats. […] Animals were fasted overnight from 10 hours before administration to 4 hours after administration. Blood samples were collected at 0.25, 0.5, 1, 2, 4, 8 and 24 hours after administration in the oral group and at 0.083, 0.25, 0.5, 1, 2, 4, 8 and 24 hours after injection in the intravenous group. After isoflurane anesthesia, 0.3 ml whole blood collected through the fundus vein plexus was put into the heparin anticoagulant tube. The sample was centrifuged at 4° C. at 4000 rpm for 5 min. The plasma was transferred into the centrifuge tube and stored at −80° C. until analysis. The extract from the plasma extracted by protein precipitation was analyzed by LC/MS/MS.

[4] = Blood-to-brain distribution in rats; assay type: in vivo; details: male, SD, rat, 10 mg/kg single oral gavage
Method: 7. Blood-to-Brain Distribution
Male SD rats were grouped, each group having 12 rats. Each group was given the compound of Examples (10 mg/kg) by single oral gavage. The animals were fasted overnight from 10 hours before administration to 4 hours after administration. The rats were killed at 0.5, 1, 4 and 12 hours after administration, and blood and brain tissues were collected. The samples were centrifuged at 4000 rpm at 4° C. for 5 min and plasma was transferred into the centrifuge tube and stored at −80° C. until analysis. The extract from the plasma extracted by protein precipitation was analyzed by LC/MS/MS.

Ba/F3 LMNA-NTRK1-WT = assay: Cell proliferation inhibition (CellTiter-Glo), Ba/F3 LMNA-NTRK1-WT; assay type: cell-based; details: Mus musculus, BaF3, 72 h, test batch marked *
Source text: as §3
(§7) Six cell lines including Ba/F3 LMNA-NTRK1-WT, Ba/F3 LMNA-NTRK1-G595R, Ba/F3 ETV6-NTRK2-WT, Ba/F3 ETV6-NTRK2-G639R, Ba/F3 ETV6-NTRK2-G639R and Ba/F3 ETV6-NTRK3-G623R were used in this experiment.
as §5
as §6, with “3000 cell/well were seeded in 96-well plate (Corning, Cat #3603). The cells were incubated overnight with 5% CO2, 95% humidity at 37° C.” left out, “signal.” for “signal. The luminescent value was collected by SpectraMax microplate detector (MD, 2104-0010A).”

Ba/F3 LMNA-NTRK1-G595R = assay: Cell proliferation inhibition (CellTiter-Glo), Ba/F3 LMNA-NTRK1-G595R; assay type: cell-based; details: Mus musculus, BaF3, 72 h, test batch marked *
Source text: as §3, §7, §5
as §6, with “3000 cell/well were seeded in 96-well plate (Corning, Cat #3603). The cells were incubated overnight with 5% CO2, 95% humidity at 37° C.” left out, “signal.” for “signal. The luminescent value was collected by SpectraMax microplate detector (MD, 2104-0010A).”

T1 sequence (P04629 33-796): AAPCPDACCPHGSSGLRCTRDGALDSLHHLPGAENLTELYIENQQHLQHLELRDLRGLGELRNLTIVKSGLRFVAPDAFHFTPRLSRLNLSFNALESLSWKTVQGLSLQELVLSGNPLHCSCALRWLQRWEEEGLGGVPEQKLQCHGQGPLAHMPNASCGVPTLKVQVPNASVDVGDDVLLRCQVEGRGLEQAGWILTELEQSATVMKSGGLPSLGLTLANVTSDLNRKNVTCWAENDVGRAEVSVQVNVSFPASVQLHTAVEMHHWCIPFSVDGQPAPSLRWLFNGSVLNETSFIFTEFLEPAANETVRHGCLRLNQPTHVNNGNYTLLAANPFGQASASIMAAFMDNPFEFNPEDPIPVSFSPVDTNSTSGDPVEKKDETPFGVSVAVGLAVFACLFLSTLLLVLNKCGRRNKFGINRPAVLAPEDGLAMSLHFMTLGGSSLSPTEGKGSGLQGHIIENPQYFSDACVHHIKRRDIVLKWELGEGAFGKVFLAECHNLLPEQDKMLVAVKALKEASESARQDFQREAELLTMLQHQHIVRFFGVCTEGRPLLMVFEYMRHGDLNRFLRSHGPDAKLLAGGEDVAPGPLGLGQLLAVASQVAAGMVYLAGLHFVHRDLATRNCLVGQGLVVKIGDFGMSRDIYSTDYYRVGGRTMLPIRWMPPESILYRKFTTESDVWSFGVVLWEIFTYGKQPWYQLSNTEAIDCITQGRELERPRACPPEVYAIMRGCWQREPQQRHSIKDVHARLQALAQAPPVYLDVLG

C[C@@H]1c2cc(F)ccc2OCCOC(=O)c2cnn3ccc(nc23)N1C [Example 23, (R,1^3E,1^4E)-4^5-fluoro-2,3-dimethyl-5,8-dioxa-2-aza-1(5,3)-pyrazolo[1,5-a]pyrimidina-4(1,2)-benzenacyclononaphan-9-one]
pIC50 (TRKA [1]): 9.41
pIC50 (ROS1): 8.32
pIC50 (TRKB): 9.32
pIC50 (TRKC): 9.20

CCc1cc2c(cc1N1CCC(N3CCOCC3)CC1)C(C)(C)c1[nH]c3cc(C#N)ccc3c1C2=O [Alectinib]
pIC50 (TRKA [2]): 7.22

C[C@H]1Nc2ccn3ncc(c3n2)C(=O)OCCOc2ccc(F)cc21 [Example 13, (R,1^3E,1^4E)-4^5-fluoro-3-methyl-5,8-dioxa-2-aza-1(5,3)-pyrazolo[1,5-a]pyrimidina-4(1,2)-benzenacyclononaphan-9-one]
pIC50 (TRKA [1]): 9.21
pIC50 (ROS1): 8.72
pIC50 (TRKB): 9.05
pIC50 (TRKC): 9.14

C[C@H]1Nc2ccn3ncc(c3n2)C(=O)OCC(F)(F)Oc2ccc(F)cc21 [Example 24, (R,1^3E,1^4E)-4^5,6,6-trifluoro-3-methyl-5,8-dioxa-2-aza-1(5,3)-pyrazolo[1,5-a]pyrimidina-4(1,2)-benzenacyclononaphan-9-one]
pIC50 (TRKA [1]): 9.25
pIC50 (ROS1): 9.54
pIC50 (TRKB): 9.22
pIC50 (TRKC): 9.12

Cc1cc(Nc2ncc(Cl)c(Nc3ccccc3S(=O)(=O)C(C)C)n2)c(OC(C)C)cc1C1CCNCC1 [Ceritinib]
pIC50 (TRKA [2]): 6.74

C[C@@H]1COc2ccc(F)cc2[C@@H](C)Nc2ccn3ncc(c3n2)C(=O)O1 [Example 6, (1^3E,1^4E,3R,7R)-4^5-fluoro-3,7-dimethyl-5,8-dioxa-2-aza-1(5,3)-pyrazolo[1,5-a]pyrimidina-4(1,2)-benzenacyclononaphan-9-one]
pIC50 (TRKA [1]): 9.12
pIC50 (ROS1): 9.11
pIC50 (TRKB): 8.92
pIC50 (TRKC): 8.92

C[C@H]1CNC(=O)c2cnn3ccc(nc23)N[C@H](C)c2cc(F)ccc2O1 [TPX-0005, reference compound]
pIC50 (Ba/F3 ETV6-NTRK2-WT): 8.60
pIC50 (Ba/F3 ETV6-NTRK2-G639R): 7.06
pIC50 (Ba/F3 ETV6-NTRK3-WT): 9.10
pIC50 (Ba/F3 LMNA-NTRK3-G623R): 8.05
AUC(0-inf) [3]: 2950 ng·h/mL
Cmax [3]: 503 ng/mL
Tmax [3]: 1.33 h
half-life [3]: 3.55 h
Kp ([4]; brain/plasma, AUC0-inf ratio): 0.17
AUC(0-inf) ([4]; brain, read-out: AUC0-inf Brain): 2.35 µM·h
AUC(0-inf) ([4]; plasma, read-out: AUC0-inf Plasma): 13.9 µM·h

C[C@H]1Nc2ccn3ncc(c3n2)C(=O)OCCSc2ccc(F)cc21 [Example 25, (R,1^3E,1^4E)-4^5-fluoro-3-methyl-8-oxa-5-thia-2-aza-1(5,3)-pyrazolo[1,5-a]pyrimidina-4(1,2)-benzenacyclononaphan-9-one]
pIC50 (TRKA [1]): 8.96
pIC50 (ROS1): 8.92
pIC50 (TRKB): 8.80
pIC50 (TRKC): 8.96

C[C@H]1COC(=O)c2cnn3ccc(nc23)N[C@H](C)c2cc(F)ccc2S1 [Example 9, (1^3E,1^4E,3R,6S)-4^5-fluoro-3,6-dimethyl-8-oxa-5-thia-2-aza-1(5,3)-pyrazolo[1,5-a]pyrimidina-4(1,2)-benzenacyclononaphan-9-one]
pIC50 (TRKA [1]): 9.23
pIC50 (ROS1): 9.27
pIC50 (TRKB): 9.07
pIC50 (TRKC): 9.12

O=C(Nc1cnn2ccc(N3CCC[C@@H]3c3cc(F)ccc3F)nc12)N1CC[C@H](O)C1 [LOXO-101, reference compound]
pIC50 (Ba/F3 LMNA-NTRK1-WT): 7.32
pIC50 (Ba/F3 LMNA-NTRK1-G595R): 5.66
pIC50 (Ba/F3 ETV6-NTRK2-WT; 72 hrs, test batch marked *): 7.12
pIC50 (Ba/F3 ETV6-NTRK2-G639R; 72 hrs, test batch marked *): 5.09
pIC50 (Ba/F3 ETV6-NTRK3-WT; 72 hrs, test batch marked *): 8.17

C[C@H]1Oc2cc(cnc2N)-c2c(nn(C)c2C#N)CN(C)C(=O)c2ccc(F)cc21 [Lorlatinib]
pIC50 (TRKA [2]): 8.21
